# Reference: article PMC4390552 (Chemical biology & drug design, 2014)
# Key:
# Format in all cases: cell-based, human
# [1] = test system: Akt phosphorylation in HPASMC; assay: Growth factor-stimulated Akt phosphorylation in HPASMC; conditions: for Akt activation in HPASMC by growth factor: 10 ng/mL PDGF or VEGF in serum-free medium, Western blot, three experiments
# [2] = test system: ERK phosphorylation in HPASMC; assay: Growth factor-stimulated ERK phosphorylation in HPASMC; conditions: for ERK activation in HPASMC by growth factor: 10 ng/mL PDGF or VEGF in serum-free medium, Western blot, three experiments
# [3] = test system: ERK phosphorylation in HPAEC; assay: Growth factor-stimulated ERK phosphorylation in HPAEC; conditions: for ERK activation in HPAEC by growth factor: 10 ng/mL PDGF or VEGF in serum-free medium, Western blot, three experiments
# [4] = test system: Akt phosphorylation in HPAEC; assay: Growth factor-stimulated Akt phosphorylation in HPAEC; conditions: 10 ng/mL PDGF or VEGF in serum-free medium; Western blot, three experiments
# HPASMC = assay: MTT cell viability assay; conditions: 100 μM CPP (H2O2 0.5 mM), 30-min incubation, OD 570 nm, quadruplicate
Compound,Akt activation in HPASMC by growth factor [1],ERK activation in HPASMC by growth factor [2],ERK activation in HPAEC by growth factor [3],"Concentration at which the dose response of ERK activation maximized ([3]; HPAEC, increasing VEGF in serum-free medium)",Akt activation in HPAEC by growth factor [4],"Concentration at which the dose response of ERK activation maximized ([2]; HPASMC, increasing PDGF in serum-free medium)",Akt phosphorylation in HPASMC by EGF ([1]; 1 ng/mL EGF),ERK phosphorylation in HPASMC by EGF ([2]; 1 ng/mL EGF),Effect on cell viability (MTT) (HPASMC)
VEGF,no activity,no activity,strong ERK phosphorylation,1 ng/mL,failed to activate Akt,,,,
PDGF,activated,activated,inactive,,failed to activate Akt,1 ng/mL,,,
"EGF: epidermal growth factor (NSDSECPLSHDGYCLHDGVCMYIEALDKYACNCVVGYIGERCQYRDLKWWELR; UniProt P01133 971-1023, looked up)",,,,,,,induced the phosphorylation of both ERK and Akt,induced the phosphorylation of both ERK and Akt,
OO [Hydrogen peroxide],,,,,,,,,statistically significant toxicity
